For the experiment, the target named is SARS 3CL^pro (Severe acute respiratory syndrome coronavirus, UniProt P0C6U8). Kind of experiment: biochemical. The arrangement: species or system SARS-CoV.

Structures are written as SMILES. A value given as a limit tells only on which side of the number the result lay.

For `O=C1c2c(O)cc(O)cc2O[C@H](c2cc(O)c(O)c(O)c2)[C@H]1O` [AMPLS, ampelopsin], it took 364 ± 8.7 µM to reach half-maximal inhibition (IC50). Besides, for the setting “pH 7.5”, the inhibition (as a rule, how much of the control response was suppressed) at 200 µM is more than 30%.
As to `O=c1c(-c2ccc(O)cc2)coc2cc(O)ccc12` [Daidzein, daidzein], the midpoint of inhibition, the IC50, lay at 351 ± 2.9 µM. The same molecule showed an inhibition at 200 µM (pH 7.5) of more than 30%.
For `Oc1cc(O)c2c(c1)O[C@H](c1cc(O)c(O)c(O)c1)[C@H](O)C2` [EGC, epigallocatechin], for the setting “pH 7.5”, the “Inhibition (%)” value is on record as 5.4% and the inhibition at 200 µM was 5%.
For the molecule `O=C(O[C@@H]1Cc2c(O)cc(O)cc2O[C@H]1c1cc(O)c(O)c(O)c1)c1cc(O)c(O)c(O)c1` [GCG, gallocatechin gallate], the “3CL^pro inhibitory activity relative to EGCG (times higher)” value was determined as 1.5 times, the IC50 (commonly the concentration at which inhibition is half-maximal) stood at 47 ± 0.9 µM, the affinity corresponds to a Ki of 25 ± 1.7 µM and the Type of inhibition result is “competitive inhibition pattern”. The inhibition at 200 µM (pH 7.5) is more than 80%.
As to `O=c1c(-c2ccc(O)cc2)coc2c([C@@H]3O[C@H](CO)[C@@H](O)[C@H](O)[C@H]3O)c(O)ccc12` [Puerarin, puerarin], it took 381 ± 12.5 µM to reach half-maximal inhibition (IC50). Where the note is “pH 7.5”, the inhibition at 200 µM is more than 30%.
`O=c1c(O)c(-c2ccc(O)c(O)c2)oc2cc(O)cc(O)c12` [Quercetin] displayed an IC50 of 73 ± 4 µM. Under “pH 7.5”, this molecule gave an inhibition at 200 µM of more than 80%.

The record behind these values is publication PMC7087583 (Biotechnology Letters, 2012).
